From ChEMBL document CHEMBL4130415, “Discovery of new MD2-targeted anti-inflammatory compounds for the treatment of sepsis and acute lung injury” (Eur J Med Chem, 2017)
Activity calls are given as the source filed them. The calls are words filed in the database; no cut-off is given here.

Tests used:
Peritoneal macrophage [1] = assay: Antiinflammatory activity in ICR mouse primary peritoneal macrophages assessed as inhibition of LPS-induced TNF-alpha production pretreated for 2 hrs followed by LPS challenge measured after 22 hrs by ELISA; format: functional, cell-based
Mus musculus [2] = assay: Antiinflammatory activity in C57BL/6 mouse assessed as reduction in LPS-induced TNF-alpha mRNA level in bronchoalveolar lavage fluid at 10 mg/kg, iv pretreated for 15 mins followed by LPS challenge measured after 6 hrs by qPCR analysis; format: functional, organism-based
Mus musculus [3] = assay: Antiinflammatory activity in C57BL/6 mouse assessed as reduction in LPS-induced interalveolar septal thickening in lung at 10 mg/kg, iv pretreated for 15 mins followed by LPS challenge measured after 6 hrs by hematoxylin and eosin staining-based light microscopic analysis; format: functional, organism-based
Peritoneal macrophage [4] = assay: Antiinflammatory activity in ICR mouse primary peritoneal macrophages assessed as inhibition of Pam3CK-induced TNF-alpha production at 10 uM pretreated for 2 hrs followed by Pam3CK challenge measured after 12 hrs by ELISA; format: functional, cell-based
Mus musculus [5] = assay: Antiinflammatory activity in C57BL/6 mouse assessed as reduction in LPS-induced total protein level in bronchoalveolar lavage fluid at 10 mg/kg, iv pretreated for 15 mins followed by LPS challenge measured after 6 hrs; format: functional, organism-based
Peritoneal macrophage [6] = assay: Antiinflammatory activity in ICR mouse primary peritoneal macrophages assessed as inhibition of LPS-induced IL-6 production pretreated for 2 hrs followed by LPS challenge measured after 22 hrs hrs by ELISA; format: functional, cell-based
Peritoneal macrophage [7] = assay: Antiinflammatory activity in ICR mouse primary peritoneal macrophages assessed as inhibition of LPS-induced TNF-alpha production at 10 uM pretreated for 2 hrs followed by LPS challenge measured after 22 hrs by ELISA relative to control; format: functional
Mus musculus [8] = assay: Antiinflammatory activity in LPS-induced C57BL/6 mouse assessed as mouse survival at 10 mg/kg, iv pretreated for 15 mins followed by LPS challenge measured after 7 days; format: functional, organism-based
Mus musculus [9] = assay: Antiinflammatory activity in C57BL/6 mouse assessed as reduction in LPS-induced total cell numbers in bronchoalveolar lavage fluid at 10 mg/kg, iv pretreated for 15 mins followed by LPS challenge measured after 6 hrs by flow cytometric analysis; format: functional, organism-based
Peritoneal macrophage [10] = assay: Antiinflammatory activity in ICR mouse primary peritoneal macrophages assessed as inhibition of LPS-induced IL-6 production at 10 uM pretreated for 2 hrs followed by LPS challenge measured after 22 hrs by ELISA relative to control; format: functional
Mus musculus [11] = assay: Antiinflammatory activity in C57BL/6 mouse assessed as reduction in LPS-induced inflammatory cell infiltration in lung at 10 mg/kg, iv pretreated for 15 mins followed by LPS challenge measured after 6 hrs by hematoxylin and eosin staining-based light microscopic analysis; format: functional, organism-based
Mus musculus [12] = assay: Antiinflammatory activity in C57BL/6 mouse assessed as reduction in LPS-induced IL-6 mRNA level in bronchoalveolar lavage fluid at 10 mg/kg, iv pretreated for 15 mins followed by LPS challenge measured after 6 hrs by qPCR analysis; format: functional, organism-based
Mus musculus [13] = assay: Antiinflammatory activity in C57BL/6 mouse assessed as reduction in LPS-induced IL-1beta mRNA level in bronchoalveolar lavage fluid at 10 mg/kg, iv pretreated for 15 mins followed by LPS challenge measured after 6 hrs by qPCR analysis; format: functional, organism-based
Mus musculus [14] = assay: Antiinflammatory activity in C57BL/6 mouse assessed as reduction in LPS-induced interstitial edema in lung at 10 mg/kg, iv pretreated for 15 mins followed by LPS challenge measured after 6 hrs by hematoxylin and eosin staining-based light microscopic analysis; format: functional, organism-based
Mus musculus [15] = assay: Antiinflammatory activity in LPS-induced C57BL/6 mouse assessed as increase in immunoreactivity to CD68 in lung at 10 mg/kg, iv pretreated for 15 mins followed by LPS challenge measured after 6 hrs by immunohistochemical analysis; format: functional, organism-based
Mus musculus [16] = assay: Antiinflammatory activity in C57BL/6 mouse assessed as reduction in LPS-induced wet to dry lung edema ratio at 10 mg/kg, iv pretreated for 15 mins followed by LPS challenge measured after 6 hrs; format: functional, organism-based

COc1ccccc1/C=C/C(=O)/C=C/c1ccccc1Br
IC50 (Peritoneal macrophage [1]): 4.73 µM
inhibition (Peritoneal macrophage [1]): Dose-dependent effect
Activity (Mus musculus [2]): Active
Activity (Mus musculus [3]): Active
inhibition (Peritoneal macrophage [4]): inactive
Activity (Mus musculus [5]): Active
IC50 (Peritoneal macrophage [6]): 4.18 µM
inhibition (Peritoneal macrophage [6]): Dose-dependent effect
inhibition at 10 µM (Peritoneal macrophage [7]): 97.6%
Activity (Mus musculus [8]): Active
Activity (Mus musculus [9]): Active
inhibition at 10 µM (Peritoneal macrophage [10]): 99.6%
Activity (Mus musculus [11]): Active
Activity (Mus musculus [12]): Active
Activity (Mus musculus [13]): Active
Activity (Mus musculus [14]): Active
Activity (Mus musculus [15]): Active
Activity (Mus musculus [16]): Active

COc1ccc(/C=C2\CCC/C(=C\c3cccc(OC)c3OC)C2=O)c(F)c1
inhibition (Peritoneal macrophage [7]): inactive
inhibition (Peritoneal macrophage [10]): inactive

COc1ccccc1/C=C/C(=O)/C=C/c1ccc(O)c(Br)c1
IC50 (Peritoneal macrophage [1]): 3.71 µM
inhibition (Peritoneal macrophage [1]): Dose-dependent effect
inhibition (Peritoneal macrophage [4]): inactive
IC50 (Peritoneal macrophage [6]): 4.13 µM
inhibition (Peritoneal macrophage [6]): Dose-dependent effect

COc1cccc(/C=C/C(=O)/C=C/c2ccc(O)c(Br)c2)c1OC
IC50 (Peritoneal macrophage [1]): 2.96 µM
inhibition (Peritoneal macrophage [1]): Dose-dependent effect
inhibition (Peritoneal macrophage [4]): inactive
IC50 (Peritoneal macrophage [6]): 3.62 µM
inhibition (Peritoneal macrophage [6]): Dose-dependent effect
Activity (Mus musculus [8]): Active

COc1cc(O)c(CC=C(C)C)c(O)c1C(=O)/C=C/c1ccc(O)cc1
inhibition (Peritoneal macrophage [7]): inactive
inhibition (Peritoneal macrophage [10]): inactive

COc1cc(OC)c(/C=C/C(=O)/C=C/c2cccc(OC)c2OC)c(OC)c1
inhibition (Peritoneal macrophage [7]): inactive
inhibition (Peritoneal macrophage [10]): inactive

COc1cc(OC)c(/C=C/C(=O)/C=C/c2ccc(OC)c(OC)c2)c(OC)c1
inhibition (Peritoneal macrophage [7]): inactive
inhibition (Peritoneal macrophage [10]): inactive
